Experimental data as given in patent publication US7541367B2, “3-benzoimidazolyl-pyrazolopyridines useful in treating kinase disorders” (Janssen Pharmaceutica, N.V., priority 2005, dated 2009).

What was measured:
[1] = molecular target: T1, HER2 (Homo sapiens, UniProt P04626); assay: HER2 kinase screening assay (33P-ATP FlashPlate); assay type: biochemical; details: GST-HIS6 HER-2 aa 679 to 1255; 10 μM ATP; 1 hr at 30° C;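 also: Biotin-poly(GT) 4:1 peptide captured on streptavidin FlashPlate, 33P transfer from γ-ATP read by scintillation counting, lower incorporation means inhibition, 1% DMSO final, 100 µL reaction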
T1 construct: GST (Glutathione-S-Transferase) (N); HIS6 (N); thrombin cleavage site (N); purchased Proqinase, Freiburg, Germany
T1 sequence (P04626 679-1255): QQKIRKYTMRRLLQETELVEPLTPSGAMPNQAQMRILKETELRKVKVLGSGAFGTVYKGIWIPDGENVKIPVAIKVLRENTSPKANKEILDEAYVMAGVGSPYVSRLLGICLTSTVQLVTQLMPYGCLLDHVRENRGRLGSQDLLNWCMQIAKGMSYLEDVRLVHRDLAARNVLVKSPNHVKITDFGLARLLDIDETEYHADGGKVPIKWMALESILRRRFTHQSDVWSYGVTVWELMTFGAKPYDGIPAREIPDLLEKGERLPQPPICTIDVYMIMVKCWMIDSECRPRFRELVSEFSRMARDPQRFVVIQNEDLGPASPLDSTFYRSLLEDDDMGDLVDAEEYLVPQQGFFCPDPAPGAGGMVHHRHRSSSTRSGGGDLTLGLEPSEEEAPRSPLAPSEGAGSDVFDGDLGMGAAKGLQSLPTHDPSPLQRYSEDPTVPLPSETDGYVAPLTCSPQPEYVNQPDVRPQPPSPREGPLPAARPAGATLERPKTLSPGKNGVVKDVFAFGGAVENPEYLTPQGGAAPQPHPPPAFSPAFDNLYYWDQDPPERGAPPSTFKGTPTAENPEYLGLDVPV

[2] = tested on: HeLa cervical adenocarcinoma; assay: Cell Proliferation Inhibition Assay (14C-thymidine incorporation), HeLa; assay type: cell-based; details: Homo sapiens, HeLa, HeLa cells;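 also: test compound in DMSO added to cells seeded in scintillating 96-well plates, DMSO-only wells as control, uptake of methyl 14C-thymidine into new DNA counted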
[3] = molecular target: T2, c-Src kinase (Homo sapiens, UniProt P12931); assay: c-Src Kinase Assay; assay type: biochemical; details: 5 μM ATP
T2 construct: purchased Upstate Biotechnology, Lake Placid, N.Y
T2 sequence (P12931 whole entry): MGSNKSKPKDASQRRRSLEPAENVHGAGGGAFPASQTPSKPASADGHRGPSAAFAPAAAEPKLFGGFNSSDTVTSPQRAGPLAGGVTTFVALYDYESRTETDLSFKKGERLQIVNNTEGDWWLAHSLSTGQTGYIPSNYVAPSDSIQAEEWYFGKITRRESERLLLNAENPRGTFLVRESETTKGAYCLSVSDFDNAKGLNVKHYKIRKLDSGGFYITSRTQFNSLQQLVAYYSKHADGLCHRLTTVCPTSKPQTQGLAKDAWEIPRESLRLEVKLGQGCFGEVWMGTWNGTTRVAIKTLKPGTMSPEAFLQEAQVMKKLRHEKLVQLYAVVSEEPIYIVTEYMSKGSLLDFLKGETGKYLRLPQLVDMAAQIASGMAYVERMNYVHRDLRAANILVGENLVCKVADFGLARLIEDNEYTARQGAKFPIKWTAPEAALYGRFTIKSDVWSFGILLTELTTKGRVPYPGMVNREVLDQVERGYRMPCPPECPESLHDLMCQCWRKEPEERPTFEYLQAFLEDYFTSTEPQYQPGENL
Protocol: A mixture of a 10× kinase buffer (80 mM MOPS at pH 7.0, 2 mM EDTA and 100 mM Magnesium Chloride), ATP (5 μM final from a 10 mM stock), a Cdc2 peptide […] (100 μM final from a 2.5 mM stock), γ-^33P ATP (10 μCi/μL stock) and water (for a total of 20 μL/well) was added to each well of a Streptavidin Flashplate.
Test compound in 100% DMSO (0.5 μL) was added to the appropriate wells. Diluted c-Src kinase (human) (Accession Number SWISS-PROT P12931) (Upstate Biotechnology, Lake Placid, N.Y.) (diluted in a buffer consisting of 20 mM MOPS at pH 7.0, 1 mM EDTA, β-mercaptoethanol (0.1%), Brij-35 (0.01%), glycerol (5%), and 1 mg/mL bovine serum albumin) (2.5 μL) was added to the wells to initiate the reactions. The reaction plates were incubated at 30° C. for 40 min. The reaction was terminated by the addition of a 3% phosphoric acid solution (5 μL). The reaction product (10 μL) was spotted onto a P30 filtermat and washed for 5 minutes in phosphoric acid (75 mM). The wash sequence was repeated two more times, followed with one final wash in methanol. The plates were then dried, sealed and read on the TopCount scintillation counter after adding 30 μL scintillation fluid.
(§1) A maximum and minimum signal for the assay was determined on each plate. The percent inhibition of a test compound was calculated according to the formula: […]
For a series of test concentrations, the IC50 was derived by graphing percent inhibition against the log of the concentrations tested for a given compound with results shown in Table 2
(§2) For compounds with multiple values, each value represents a separate assay result.

[4] = molecular target: T3, CDK1 (Homo sapiens, UniProt P06493); assay: CDK-1 kinase screening assay (33P-ATP FlashPlate); assay type: biochemical; details: human CDK1 with cyclin B; 10 μM ATP; 1 hr at 30° C
T3 construct: purchased New England Biolabs, Beverly, Mass; 6020; host or cells: insect cells
T3 sequence (P06493 whole entry): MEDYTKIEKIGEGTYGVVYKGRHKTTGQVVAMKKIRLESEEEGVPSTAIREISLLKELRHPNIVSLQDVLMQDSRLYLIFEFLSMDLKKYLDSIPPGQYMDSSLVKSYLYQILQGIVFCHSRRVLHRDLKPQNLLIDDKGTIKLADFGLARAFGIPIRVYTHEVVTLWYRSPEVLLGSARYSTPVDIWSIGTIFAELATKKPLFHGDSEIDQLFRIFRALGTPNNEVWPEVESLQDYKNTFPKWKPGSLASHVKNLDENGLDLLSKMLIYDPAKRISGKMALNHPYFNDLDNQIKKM
T3 sequence (P14635 whole entry partner): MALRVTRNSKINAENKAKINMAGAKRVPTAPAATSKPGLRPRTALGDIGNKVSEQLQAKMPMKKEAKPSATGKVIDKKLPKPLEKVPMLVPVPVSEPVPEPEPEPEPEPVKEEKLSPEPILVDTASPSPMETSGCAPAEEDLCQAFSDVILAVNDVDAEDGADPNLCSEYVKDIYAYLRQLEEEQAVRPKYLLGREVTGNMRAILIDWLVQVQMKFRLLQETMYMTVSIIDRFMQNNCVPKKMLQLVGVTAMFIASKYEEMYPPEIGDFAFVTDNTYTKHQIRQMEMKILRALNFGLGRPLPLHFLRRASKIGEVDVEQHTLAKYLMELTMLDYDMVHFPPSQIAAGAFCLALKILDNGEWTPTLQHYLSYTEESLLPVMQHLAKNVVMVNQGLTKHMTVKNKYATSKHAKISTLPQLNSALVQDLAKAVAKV

[5] = molecular target: T4, VEGF-R2 (Rattus norvegicus, UniProt O08775); assay: VEGF-R2 kinase screening assay (33P-ATP FlashPlate); assay type: biochemical; details: rat VEGF-R2 kinase domain; 10 μM ATP; 1 hr at 30° C;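 also: Read-out is ³³P incorporation from ³³P-γ-ATP into biotinylated peptide substrate captured on streptavidin FlashPlate, counted by scintillation, 1% DMSO final, inhibition scaled between per-plate maximum and minimum signals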
T4 construct: polyhistidine (N)
T4 sequence (O08775 786-1343): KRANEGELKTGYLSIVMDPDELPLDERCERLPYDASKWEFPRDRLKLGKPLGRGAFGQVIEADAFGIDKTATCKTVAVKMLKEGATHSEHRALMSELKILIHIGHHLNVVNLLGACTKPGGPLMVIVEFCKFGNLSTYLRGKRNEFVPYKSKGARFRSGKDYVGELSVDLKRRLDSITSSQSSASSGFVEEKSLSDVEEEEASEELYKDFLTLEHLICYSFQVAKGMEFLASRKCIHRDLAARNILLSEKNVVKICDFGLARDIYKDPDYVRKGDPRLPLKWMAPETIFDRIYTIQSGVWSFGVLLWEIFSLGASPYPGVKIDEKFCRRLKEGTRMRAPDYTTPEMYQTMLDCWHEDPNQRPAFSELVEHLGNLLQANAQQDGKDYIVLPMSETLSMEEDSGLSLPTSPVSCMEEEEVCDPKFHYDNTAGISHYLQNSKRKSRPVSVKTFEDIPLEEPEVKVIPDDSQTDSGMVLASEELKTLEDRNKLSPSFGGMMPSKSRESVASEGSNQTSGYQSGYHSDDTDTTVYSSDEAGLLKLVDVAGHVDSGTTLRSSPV

[6] = tested on: HCT-116 colon carcinoma; assay: Cell Proliferation Inhibition Assay (14C-thymidine incorporation), HCT-116; assay type: cell-based; details: Homo sapiens, HCT-116, HCT-116 cells;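 also: proliferation measured as methyl 14C-thymidine uptake into new DNA, counted in 96-well scintillating microplates, compared with DMSO-only control wells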
[7] = molecular target: T5, Aurora-A (Mus musculus, UniProt P97477); assay: Aurora-A kinase screening assay (33P-ATP FlashPlate); assay type: biochemical; details: 10 μM ATP, 1 hr at 30° C;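 also: His-tagged mouse Aurora-A phosphorylating a biotinylated peptide captured on streptavidin plates, read as 33P uptake by scintillation counting, 1% DMSO, inhibition scaled between per-plate maximum and minimum signals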
T5 construct: polyhistidine (N)
T5 sequence (P97477 1-395): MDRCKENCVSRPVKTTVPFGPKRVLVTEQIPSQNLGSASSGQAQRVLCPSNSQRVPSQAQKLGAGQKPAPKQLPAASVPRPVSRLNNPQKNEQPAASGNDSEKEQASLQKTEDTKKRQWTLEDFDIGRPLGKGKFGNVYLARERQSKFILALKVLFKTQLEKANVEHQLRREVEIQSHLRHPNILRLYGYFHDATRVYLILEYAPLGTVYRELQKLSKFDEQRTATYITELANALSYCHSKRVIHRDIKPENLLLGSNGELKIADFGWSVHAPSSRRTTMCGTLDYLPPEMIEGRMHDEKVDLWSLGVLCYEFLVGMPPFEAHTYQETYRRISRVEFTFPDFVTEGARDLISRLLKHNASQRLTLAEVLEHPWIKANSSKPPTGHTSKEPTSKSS

[8] = tested on: A375 malignant melanoma; assay: Cell Proliferation Inhibition Assay (14C-thymidine incorporation), A375; assay type: cell-based; details: Homo sapiens, A-375, A375 cells;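 also: proliferation measured by radiolabelled thymidine uptake into new DNA, counted in scintillating 96-well plates, compound-treated wells compared with DMSO-only control wells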
[9] = molecular target: T6, RET (Homo sapiens, UniProt P07949); assay: RET kinase screening assay (33P-ATP FlashPlate); assay type: biochemical; details: human RET kinase domain; 10 μM ATP; 1 hr at 30° C;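 also: biotinylated peptide substrate captured on streptavidin FlashPlate, 33P phosphate transfer read by scintillation counting, 1% DMSO, lower incorporation means inhibition, percent relative to per-plate maximum and minimum signals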
T6 construct: polyhistidine (N)
T6 sequence (P07949 658-1114 limits assumed): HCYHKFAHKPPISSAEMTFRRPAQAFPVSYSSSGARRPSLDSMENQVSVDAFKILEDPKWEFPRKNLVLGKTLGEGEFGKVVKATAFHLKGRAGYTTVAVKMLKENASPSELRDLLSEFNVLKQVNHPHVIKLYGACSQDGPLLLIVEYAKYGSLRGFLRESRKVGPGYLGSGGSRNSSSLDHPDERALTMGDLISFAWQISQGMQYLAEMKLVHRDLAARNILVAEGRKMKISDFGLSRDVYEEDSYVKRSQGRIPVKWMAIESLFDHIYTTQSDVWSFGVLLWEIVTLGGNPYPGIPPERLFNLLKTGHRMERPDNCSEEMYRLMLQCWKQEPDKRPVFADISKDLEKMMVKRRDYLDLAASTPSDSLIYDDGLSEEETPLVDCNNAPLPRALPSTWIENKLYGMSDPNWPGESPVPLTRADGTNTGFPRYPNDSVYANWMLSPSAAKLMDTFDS

[10] = molecular target: T7, Lyn kinase (Homo sapiens, UniProt P07948); assay: Lyn Kinase Assay; assay type: biochemical; details: 5 μM ATP
T7 construct: purchased Upstate Biotechnology, Lake Placid, N.Y
T7 sequence (P07948 whole entry): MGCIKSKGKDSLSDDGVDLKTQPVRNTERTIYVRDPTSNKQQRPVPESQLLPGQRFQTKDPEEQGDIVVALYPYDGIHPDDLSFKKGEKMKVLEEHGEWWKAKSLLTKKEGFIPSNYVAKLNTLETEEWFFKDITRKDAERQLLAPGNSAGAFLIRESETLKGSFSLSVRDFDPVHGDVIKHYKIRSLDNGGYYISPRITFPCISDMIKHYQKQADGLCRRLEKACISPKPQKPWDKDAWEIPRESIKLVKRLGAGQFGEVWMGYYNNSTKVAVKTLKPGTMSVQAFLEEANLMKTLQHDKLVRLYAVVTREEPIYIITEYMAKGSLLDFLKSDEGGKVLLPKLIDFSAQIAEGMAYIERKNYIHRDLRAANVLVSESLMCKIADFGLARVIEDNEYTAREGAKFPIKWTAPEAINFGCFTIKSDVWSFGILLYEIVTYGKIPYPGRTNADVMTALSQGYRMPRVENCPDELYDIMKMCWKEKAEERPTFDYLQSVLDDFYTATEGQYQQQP
Protocol: Test compound in 100% DMSO (0.5 μL) was added to the appropriate wells. Diluted Lyn kinase (human) (Accession Number EMBL M16038) (Upstate Biotechnology, Lake Placid, N.Y.) (diluted in a buffer consisting of 50 mM Tris at pH 7.5, 0.1 mM EGTA, Sodium Vanadate (0.1 mM), β-mercaptoethanol (0.1%) and 1 mg/mL bovine serum albumin) (2.5 μL) was added to the wells to initiate the reactions.
The reaction plates were incubated at 30° C. for 40 min. The reaction was terminated by the addition of a 3% phosphoric acid solution (5 μL). The reaction product (10 μL) was spotted onto a P30 filtermat and washed for 5 minutes in phosphoric acid (75 mM). The wash sequence was repeated two more times, followed with one final wash in methanol. The plates were then dried, sealed and read on the TopCount scintillation counter after adding 30 μL scintillation fluid.
as §1
For a series of test concentrations, the IC50 was derived by graphing percent inhibition against the log of the concentrations tested for a given compound with results shown in Table 3
as §2

IC50 [1] | IC50 [2] | IC50 [3] | IC50 [4] | IC50 [5] | IC50 [6] | IC50 [7] | IC50 [8] | IC50 [9] | IC50 [10] | SMILES
> 10 µM | 0.298 µM | 0.358 µM | 0.0098 µM | ~1 µM | 0.28 µM | 4.46 µM | 0.239 µM | 7.63 µM | – | CCNCc1cncc(-c2cnc3[nH]nc(-c4nc5c(COC)cccc5[nH]4)c3c2)c1 [Cpd 42, ethyl-{5-[3-(4-methoxymethyl-1H-benzoimidazol-2-yl)-1H-pyrazolo[3,4-b]pyridin-5-yl]-pyridin-3-ylmethyl}-amine]
> 10 µM | 1.62 µM | 0.183 µM | 0.013 µM | 0.349 µM | 0.643 µM | 3.18 µM | 1.61 µM | > 10 µM | – | COCc1cccc2[nH]c(-c3n[nH]c4ncc(-c5cncc(CNCCO)c5)cc34)nc12 [Cpd 77, 2-({5-[3-(4-methoxymethyl-1H-benzoimidazol-2-yl)-1H-pyrazolo[3,4-b]pyridin-5-yl]-pyridin-3-ylmethyl}-amino)-ethanol]
– | 0.698 µM | 0.0979 µM | 0.00657 µM | – | 0.348 µM | – | 0.467 µM | – | > 100 µM | Fc1ccc2nc(-c3n[nH]c4ncc(-c5cccnc5)cc34)[nH]c2c1 [Cpd 92, 3-(6-fluoro-1H-benzoimidazol-2-yl)-5-pyridin-3-yl-1H-pyrazolo[3,4-b]pyridine]
> 100 µM | 0.799 µM | 0.756 µM | 0.006 µM | – | 0.519 µM | > 10 µM | 0.645 µM | > 100 µM | – | FC(F)(F)Oc1ccc2[nH]c(-c3n[nH]c4ncc(-c5cccnc5)cc34)nc2c1 [Cpd 94, 5-pyridin-3-yl-3-(5-trifluoromethoxy-1H-benzoimidazol-2-yl)-1H-pyrazolo[3,4-b]pyridine]
> 100 µM | 1.93 µM | 0.074 µM | 0.0034 µM | – | 1.41 µM | 0.229 µM | 2.65 µM | > 1 µM | – | OCCOc1ccc2[nH]c(-c3n[nH]c4ncc(-c5cccnc5)cc34)nc2c1 [Cpd 95, 2-[2-(5-pyridin-3-yl-1H-pyrazolo[3,4-b]pyridine-3-yl)-1H-benzoimidazol-5-yloxyl]-ethanol]
10.7 µM | 0.0472 µM | 0.0117 µM | 0.0032 µM | 0.269 µM | 0.106 µM | 0.359 µM | 0.12 µM | ~1 µM | – | COc1ccc2[nH]c(-c3n[nH]c4ncc(-c5cncc(CNC(C)C)c5)cc34)nc2c1 [Cpd 102, isopropyl-{5-[3-(5-methoxy-1H-benzoimidazol-2-yl)-1H-pyrazolo[3,4-b]pyridin-5-yl]-pyridin-3-ylmethyl}-amine]

Continued, molecule first:

SMILES | IC50 [1] | IC50 [2] | IC50 [3] | IC50 [4] | IC50 [5] | IC50 [6] | IC50 [7] | IC50 [8] | IC50 [9] | IC50 [10]
COCc1cccc2[nH]c(-c3n[nH]c4ncc(-c5cc[nH]c5)cc34)nc12 [Cpd 40, 3-(4-methoxymethyl-1H-benzoimidazol-2-yl)-5-(1H-pyrrol-3-yl)-1H-pyrazolo[3,4-b]pyridine] | > 100 µM | 1.23 µM | 0.327 µM | 1.19 µM | 0.462 µM | 0.0565 µM | ~1 µM | 0.0737 µM | – | –
COCc1cccc2[nH]c(-c3n[nH]c4ncc(-c5cncc(C=O)c5)cc34)nc12 [Cpd 41, 5-[3-(4-methoxymethyl-1H-benzoimidazol-2-yl)-1H-pyrazolo[3,4-b]pyridin-5-yl]-pyridine-3-carbaldehyde] | ~100 µM | 1.22 µM | 0.0925 µM | 0.231 µM | > 1 µM | 0.161 µM | 0.248 µM | 0.265 µM | > 100 µM | –
COCc1cccc2[nH]c(-c3n[nH]c4ncc(-c5cncc(CN)c5)cc34)nc12 [Cpd 73, C-{5-[3-(4-methoxymethyl-1H-benzoimidazol-2-yl)-1H-pyrazolo[3,4-b]pyridin-5-yl]-pyridin-3-yl}-methylamine] | > 10 µM | 2.55 µM | 0.823 µM | 0.0427 µM | > 10 µM | 0.413 µM | 4.75 µM | 0.678 µM | > 10 µM | –
COCc1cccc2[nH]c(-c3n[nH]c4ncc(-c5cncc(CNCCN6CCOCC6)c5)cc34)nc12 [Cpd 74, {5-[3-(4-methoxymethyl-1H-benzoimidazol-2-yl)-1H-pyrazolo[3,4-b]pyridin-5-yl]-pyridin-3-ylmethyl}-(2-morpholin-4-yl-ethyl)-amine] | ~100 µM | 4.78 µM | 0.954 µM | 0.551 µM | 0.284 µM | 0.386 µM | 6.82 µM | 0.459 µM | ~100 µM | –
COCCNCc1cncc(-c2cnc3[nH]nc(-c4nc5c(COC)cccc5[nH]4)c3c2)c1 [Cpd 75, (2-methoxy-ethyl)-{5-[3-(4-methoxymethyl-1H-benzoimidazol-2-yl)-1H-pyrazolo[3,4-b]pyridin-5-yl]-pyridin-3-ylmethyl}-amine] | > 10 µM | 0.594 µM | 0.378 µM | 0.0636 µM | 1.64 µM | 0.163 µM | 4.5 µM | 0.205 µM | > 10 µM | –
COCc1cccc2[nH]c(-c3n[nH]c4ncc(-c5cncc(CNCCN(C)C)c5)cc34)nc12 [Cpd 76, N′-{5-[3-(4-methoxymethyl-1H-benzoimidazol-2-yl)-1H-pyrazolo[3,4-b]pyridin-5-yl]-pyridin-3-ylmethyl}-N,N-dimethyl-ethane-1,2-diamine] | > 100 µM | 10.1 µM | 1.01 µM | 0.595 µM | 1.37 µM | 0.255 µM | 6.6 µM | 0.178 µM | > 100 µM | –
